{"source": "patent US20250041249A1", "about": "“METHOD OF TREATING LIVER STEATOSIS WITH BIOAVAILABLE FORMULATION OF OLEOYLETHANOLAMIDE” (THE REGENTS OF THE UNIVERSITY OF CALIFORNIA, priority 2021, published 2025)", "key": {"HFD-fed mice": {"system": "HFD-fed mice", "experiment": "Subchronic i.p. OEA in HFD-fed mice: body weight gain and blood chemistry", "format": "in vivo, mouse", "conditions": "OEA 5 mg/kg i.p. once daily for 6 weeks, mean ± S.E.M", "experimental": "18-week-old mice were randomized into two groups; one received standard chow (6.5% kcal fat, Envigo 2020X, Livermore, CA) and the other a high-fat diet (HFD, 60% kcal fat, D12492, Research Diets, New Brunswick, NJ). Both were available ad libitum for 11 weeks. Body weight and food intake were recorded three times per week. Animals from both groups were randomly assigned to three cohorts: a) free feeding, b) fasting (from 6:00 pm to 12:00 pm on the following day) and c) fasting/refeeding (2 hr access to food after fasting). Mice assigned to the fasting and fasting/refeeding groups were housed in bottom-wired cages to prevent coprophagia. OEA was dissolved in a vehicle of 95% saline/5% Tween80 (v/v) shortly before experiments. It was administered by intraperitoneal (i.p.) injection at 5 mg/kg in a volume of 10 ml/kg. A comprehensive blood chemistry panel was performed at Antech Diagnostics (Irvine, CA). Diet-induced obesity is associated with the development of liver steatosis and fibrosis. We asked whether OEA supplementation might correct these alterations in HFD-fed mice, which are defective in endogenous OEA production. We exposed mice to HFD for 5 weeks, randomized them into two groups, and treated them either with OEA (5 mg/kg, once daily) or vehicle for 6 additional weeks of HFD exposure. As expected, OEA administration reduced body weight gain and lowered circulating total cholesterol and liver transaminase levels (Table 2, FIG. 5). These effects were accompanied by improvement in hepatic lipid profile (FIG. 3). […] Transcription of other relevant genes (Nrf1, Tnfa, Tgf1b, Nqo1) was not affected (FIG. 3h-j)."}, "PPAR-α [1]": {"biological_target": "T1, PPAR-α (Homo sapiens, UniProt Q07869)", "T1 sequence (Q07869 1-468)": "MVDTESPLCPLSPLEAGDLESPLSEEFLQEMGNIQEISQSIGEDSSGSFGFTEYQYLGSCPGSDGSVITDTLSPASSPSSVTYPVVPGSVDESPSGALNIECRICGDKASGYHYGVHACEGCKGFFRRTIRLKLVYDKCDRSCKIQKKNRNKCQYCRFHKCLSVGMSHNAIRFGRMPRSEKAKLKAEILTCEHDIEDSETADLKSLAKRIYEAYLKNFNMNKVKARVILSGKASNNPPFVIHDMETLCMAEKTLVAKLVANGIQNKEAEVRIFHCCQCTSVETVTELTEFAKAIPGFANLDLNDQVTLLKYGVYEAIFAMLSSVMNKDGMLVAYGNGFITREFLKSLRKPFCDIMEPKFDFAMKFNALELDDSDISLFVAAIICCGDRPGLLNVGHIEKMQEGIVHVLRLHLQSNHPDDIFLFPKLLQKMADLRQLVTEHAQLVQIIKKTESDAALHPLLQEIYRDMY", "conditions": "read-out: affinity constant, KD; cited from earlier work"}, "[2]": {"system": "liver inflammation and fibrosis genes", "experiment": "Subchronic i.p. OEA in HFD-fed mice: liver gene transcription (real time PCR)", "format": "in vivo, mouse", "conditions": "OEA 5 mg/kg i.p. once daily 6 weeks, versus vehicle controls", "experimental": "18-week-old mice were randomized into two groups; one received standard chow (6.5% kcal fat, Envigo 2020X, Livermore, CA) and the other a high-fat diet (HFD, 60% kcal fat, D12492, Research Diets, New Brunswick, NJ). Both were available ad libitum for 11 weeks. Body weight and food intake were recorded three times per week. Animals from both groups were randomly assigned to three cohorts: a) free feeding, b) fasting (from 6:00 pm to 12:00 pm on the following day) and c) fasting/refeeding (2 hr access to food after fasting). Mice assigned to the fasting and fasting/refeeding groups were housed in bottom-wired cages to prevent coprophagia.\nOEA was dissolved in a vehicle of 95% saline/5% Tween80 (v/v) shortly before experiments. It was administered by intraperitoneal (i.p.) injection at 5 mg/kg in a volume of 10 ml/kg.\nWe extracted total RNA from liver using TRIzol™ reagent (Thermo Fisher Scientific, Waltham, MS) and purified it with the PureLink™ RNA Mini Kit (Invitrogen, Waltham, MS) as directed by the supplier. Prior to purification, samples were passed through a gDNA Eliminator spin column (Qiagen, Germantown, CA). We quantified RNA using NanoDrop 2000/2000-c spectrophotometer (Thermo Fisher Scientific). cDNA was synthesized from […] of total RNA using the High-Capacity cDNA RT Kit with RNase inhibitor (Applied BioSystems, Foster City, CA) following manufacturer's instructions. First-strand cDNA was amplified using TaqMan™ Universal PCR Master Mixture (Thermo Fisher Scientific) Real-time PCR reactions were performed in 96-well plates using the CFX96™ Real-Time System (Bio-Rad, Hercules, CA). The thermal cycling conditions were as follows: initial denaturation set at 95° C. for 10 min, followed by 45 cycles, where each cycle was performed at 95° C. for 30 s followed by 55° C. for 60 s. ΔCt values were calculated using the geometric mean of three different housekeeping genes, and the relative fold changes over control groups (chow-free feed) were calculated by the 2-44Ct method. Real-time PCR primers and fluorogenic probes were purchased from Applied Biosystems (TaqMan (R) Gene Expression Assays, Foster City, CA). We used TaqMan gene expression assays for mouse Actb (Mm00607939_s1), Hprt (Mm00446968_m1), Gapdh (Mm99999915_g1), Tnfa (Mm00443258_m1), Il1b (Mm00434228_m1), Tgfb1 (Mm_01178820_m1), Ccl2 (Mm_00441242_m1) Hmox1 (Mm_00516005_m1), Col1a1 (Mm_00801666_g1), Nqo1 (Mm_01135606_m1), Nrf1 (Mm01135606_m1), Faah (Mm_00515684_m1), and NapepId (Mm_00724596_m1) (Applied Biosystems, Foster City, CA).\nDiet-induced obesity is associated with the development of liver steatosis and fibrosis. We asked whether OEA supplementation might correct these alterations in HFD-fed mice, which are defective in endogenous OEA production. We exposed mice to HFD for 5 weeks, randomized them into two groups, and treated them either with OEA (5 mg/kg, once daily) or vehicle for 6 additional weeks of HFD exposure. As expected, OEA administration reduced body weight gain and lowered circulating total cholesterol and liver transaminase levels (Table 2, FIG. 5). These effects were accompanied by improvement in hepatic lipid profile (FIG. 3). […] Transcription of other relevant genes (Nrf1, Tnfa, Tgf1b, Nqo1) was not affected (FIG. 3h-j)."}, "PPAR-α [3]": {"biological_target": "T1, PPAR-α", "conditions": "PPAR-α agonist; read-out: median effective concentration, EC50; cited from earlier work"}, "liver of HFD-fed mice": {"system": "liver of HFD-fed mice", "experiment": "Subchronic i.p. OEA in HFD-fed mice: liver lipid accumulation (Oil Red O, BODIPY, triglyceride kit)", "format": "in vivo, mouse", "conditions": "OEA 5 mg/kg i.p. once daily 6 weeks, versus vehicle controls", "experimental": "18-week-old mice were randomized into two groups; one received standard chow (6.5% kcal fat, Envigo 2020X, Livermore, CA) and the other a high-fat diet (HFD, 60% kcal fat, D12492, Research Diets, New Brunswick, NJ). Both were available ad libitum for 11 weeks. Body weight and food intake were recorded three times per week. Animals from both groups were randomly assigned to three cohorts: a) free feeding, b) fasting (from 6:00 pm to 12:00 pm on the following day) and c) fasting/refeeding (2 hr access to food after fasting). Mice assigned to the fasting and fasting/refeeding groups were housed in bottom-wired cages to prevent coprophagia. OEA was dissolved in a vehicle of 95% saline/5% Tween80 (v/v) shortly before experiments. It was administered by intraperitoneal (i.p.) injection at 5 mg/kg in a volume of 10 ml/kg. Liver triglycerides were quantified using a colorimetric assay kit (Cayman Chemicals). Briefly, ˜30 mg of right liver lobe were mixed with 0.2 mL of assay buffer and processed following manufacturer's instructions. Oil Red O Staining: We embedded liver samples in a mold, cut them into 7-μm thick sections with a cryostat and fixed them with 4% paraformaldehyde (PFA) for 15 min. After fixation, we immersed the sections in phosphate-buffered saline (PBS) for 2 min, placed them in isopropanol (60%) for 2 min, and incubated them with Oil Red O (60% in isopropanol) for 30 min. […]"}}, "data": [{"smiles": "CCCCCCCC/C=C\\CCCCCCCC(=O)NCCO", "note": "[OEA, oleoylethanolamide]", "values": [{"measurement": "A Body weight", "setting": "HFD-fed mice", "result": "2.27 ± 0.5", "unit": "g"}, {"measurement": "ALT (SPGT)", "setting": "HFD-fed mice", "result": "45.4 ± 6.9", "unit": "IU/L"}, {"measurement": "AST (SGOT)", "setting": "HFD-fed mice", "result": "86.1 ± 9.9", "unit": "IU/L"}, {"measurement": "Cholesterol", "setting": "HFD-fed mice", "result": "173.6 ± 7.6", "unit": "mg/dL"}, {"measurement": "Glucose", "setting": "HFD-fed mice", "result": "250.5 ± 19.1", "unit": "mg/dL"}, {"measurement": "Triglyceride", "setting": "HFD-fed mice", "result": "81.0 ± 4.9", "unit": "mg/dL"}, {"measurement": "Kd", "setting": "PPAR-α [1]", "result": "~40", "unit": "nM"}, {"measurement": "liver transcription of C-C Motif Chemokine Ligand 2 (Ccl2)", "setting": "[2]", "result": "attenuated"}, {"measurement": "liver transcription of Nqo1", "setting": "[2]", "result": "not affected"}, {"measurement": "liver transcription of Nrf1", "setting": "[2]", "result": "not affected"}, {"measurement": "liver transcription of Tgf1b", "setting": "[2]", "result": "not affected"}, {"measurement": "liver transcription of Tnfa", "setting": "[2]", "result": "not affected"}, {"measurement": "liver transcription of collagen type I a1 (Col1a1)", "setting": "[2]", "result": "attenuated"}, {"measurement": "liver transcription of heme oxygenase 1 (Hmox1)", "setting": "[2]", "result": "enhanced"}, {"measurement": "liver transcription of interleukin 1B (1/1b)", "setting": "[2]", "result": "attenuated"}, {"measurement": "EC50", "setting": "PPAR-α [3]", "result": "~120", "unit": "nM"}, {"measurement": "liver lipid content (Oil Red O and BODIPY staining of liver sections)", "setting": "liver of HFD-fed mice", "result": "reduced"}, {"measurement": "liver triglyceride content", "setting": "liver of HFD-fed mice", "result": "lower"}]}]}
